The record followed here is patent publication US7569225B2, “Immunogenic lipopeptides comprising T-helper and B-cell epitopes” (The Council of The Queensland Institute of Medical Research, priority 2002, dated 2009).

“And” between values parts separate entries of the source, which are not always exact repeats. Equal entries are not always repeated. “Also recorded” adds a separate entry of the source. Where two headings read alike, the source gives them in different places. Where no end group is shown, it is not given here. Pam3Cys = lipoamino acid of Formula (III) conjugated to the N-terminus; Pam2Cys = lipid of Formula (II)

The nature of data set [1]: Solubility of peptides and lipopeptides in saline (visual inspection). In kind it is physicochemical. The settings on record: for solubility / appearance of solution: visual inspection. On the procedure: FIG. 2 is a photographic representation showing the solubilities of lipopeptides designated [Th]-Lys(Pam2Cys-Ser-Ser)-[B] (left) and Pam2Cys-Ser-Ser-[Th]-[B] (right) in FIG. 1, wherein the polypeptide moieties have the amino acid sequences set forth in SEQ ID NO: 7 and SEQ ID NO: 5, respectively. Both solutions are approximately 1 mg/ml lipopeptide in saline solution.
Enhanced solubility was most evident in those cases where lipid was attached between the two epitopes at the approximate centre of the molecule. The lipopeptides designated [Th]-Lys(Pam2Cys)-[B] and [Th]-Lys(Pam3Cys)-[B] were soluble in saline at concentrations of at least 8 mg/ml (no higher concentrations were examined), whereas constructs in which lipid was attached to the N-terminus of the sequence formed opalescent solutions at concentrations as low as 0.25 mg/ml.
We considered that the insoluble nature of this construct would prevent it from being considered as a viable proposition for manufacture as a vaccine.

A further data set has as its system female mice. In kind it is in vivo, BALB/c mice. As to conditions: for Pregnancy status (No. of animals per group that dropped litters): fertility experiment initiated two weeks after second dose; for Incidence of pregnancy 13 weeks after 2nd Dose / Incidence of pregnancy 2 weeks after 2nd Dose: 20 nmoles subcutaneously; for Incidence of pregnancy 13 weeks after 2nd Dose: animals per group of five; for Incidence of pregnancy 2 weeks after 2nd Dose: animals that dropped litters per group of five.

In another data set the test system is M1 GAS strain. Nature of the data set: Survival of inoculated mice after intranasal challenge with GAS. In kind it is in vivo, Group A Streptococcus. The settings on record: Quackenbush mice, challenge two weeks after last dose.
For a further data set, the system named is D1 cells. Format: cell-based, BALB/c mouse.
Data set [2] deals with J14. As to conditions: Quackenbush mice, 60 μg intranasally, three doses, eight days after final dose; versus control groups.
Experimental: Female outbred Quackenbush mice 4-6 weeks old (15/group) were inoculated intranasally with 60 μg of each peptide-based vaccine in a total volume of 30 μl PBS. Mice received three doses of vaccine at 21-day intervals. Eight days following the final dose saliva was collected from individual mice and the average J14-specific salivary IgA antibody titres were determined by standard ELISA.
Female outbred Quackenbush mice 4-6 weeks old (15/group) were inoculated intranasally with 60 μg of peptide-based vaccine in a total volume of 30 μl PBS. Mice received three doses of vaccine at 21-day intervals. […] Eight days following the final dose saliva was collected from individual mice and the average J14-specific salivary IgA antibody titres were determined by standard ELISA.
In data set [3] the test system is J14. As to conditions: Quackenbush mice, 60 μg intranasally, three doses, 6 days after last dose.
Experimental: Female outbred Quackenbush mice 4-6 weeks old (15/group) were inoculated intranasally with 60 μg of peptide-based vaccine in a total volume of 30 μl PBS. Mice received three doses of vaccine at 21-day intervals. Fecal IgA was determined 6 days following the last dose of antigen.
Data set [4] has as its system J14. The settings on record: Quackenbush mice, 60 μg intranasally, three doses at 21-day intervals, seven days after final dose; versus control groups.
Experimental: The lipoamino acid moiety Pam2Cys-Ser-Ser was added to an internal lysine positioned between the T-helper epitope and the B-cell epitope in all lipopeptides tested. In the lipopeptide [Th]-Lys(Pam2Cys-Ser-Ser)-[J14], this is the only lipid moiety, whereas in the lipopeptide Pam2Cys-Ser-Ser-[Th]-Lys(Pam2Cys-Ser-Ser)-[J14], an additional lipoamino acid moiety Pam2Cys-Ser-Ser was added to the N-terminal amino group of the T-helper epitope. […] Seven days following the final dose mice were bled from the tail vein and J14-specific serum IgG was determined.
ELISA assays were carried out on serum samples as described essentially by Ghosh et al., Int Immun. […] The titres of antibody are expressed as the reciprocal of the highest dilution of serum to achieve an OD of 0.2, which represents approximately 5 times the background binding in the absence of antibody. The isotype of antibodies specific for LHRH or J14 was determined using rabbit antisera directed against mouse IgM, IgG1, IgG2a, IgG2b, IgG3 or IgA (ICN Pharmaceuticals Inc., Costa Mesa, Calif.) as previously described by Ghosh et al., Int Immun.
Female outbred Quackenbush mice 4-6 weeks old (15/group) were inoculated intranasally with 60 μg of peptide-based vaccine in a total volume of 30 μl PBS. […] Seven days following the final dose mice were bled from the tail vein and J14-specific serum IgG was determined.

Experimental for M1 GAS strain: Two weeks after the last dose of antigen, mice were challenged intranasally with M1 GAS strain and survival determined at various time points afterwards.
Female outbred Quackenbush mice 4-6 weeks old (15/group) were inoculated intranasally with 60 μg of peptide-based vaccine in a total volume of 30 μl PBS. Mice received three doses of vaccine at 21-day intervals. […] Two weeks after the last dose of antigen, mice were challenged intranasally with M1 GAS strain and survival determined at various time points afterwards.

Turning to `CCCCCCCCCCCCCCCC(=O)OCC(CSC[C@H](N)C(=O)N[C@@H](CO)C(=O)N[C@@H](CO)C(=O)NCCCC[C@H](NC(=O)[C@H](CO)NC(=O)[C@H](CCCCN)NC(=O)[C@H](CC(C)C)NC(=O)[C@H](CCC(=O)O)NC(=O)[C@@H](NC(=O)CNC(=O)[C@H](CCCCN)NC(=O)[C@@H](NC(=O)[C@H](CCC(N)=O)NC(=O)[C@H](Cc1ccccc1)NC(=O)[C@H](CCCNC(=N)N)NC(=O)[C@H](CC(N)=O)NC(=O)[C@H](CC(N)=O)NC(=O)[C@H](CC(C)C)NC(=O)[C@H](C)NC(=O)CN)[C@@H](C)CC)C(C)C)C(=O)N[C@@H](CCC(=O)O)C(=O)N[C@@H](Cc1c[nH]cn1)C(=O)N[C@@H](Cc1c[nH]c2ccccc12)C(=O)N[C@@H](CO)C(=O)N[C@@H](Cc1ccc(O)cc1)C(=O)NCC(=O)N[C@@H](CC(C)C)C(=O)N[C@@H](CCCNC(=N)N)C(=O)N1CCC[C@H]1C(=O)NCC(=O)O)OC(=O)CCCCCCCCCCCCCCC` (stereo partly drawn) [[Th]-Lys(Pam2Cys-Ser-Ser)-[B]], in data set [1], the “solubility / appearance of solution” value is on record as “clear; also recorded: higher solubility”.
For GALNNRFQIKGVELKSEHWSYGLRPG [[Th]—[B]], the “Pregnancy status (No. of animals per group that dropped litters)” value in the data set with female mice (1 nmole, subcutaneous) is on record as 3/5; with female mice (10 nmole, subcutaneous) it was 1/5. Moreover, the “Incidence of pregnancy 13 weeks after 2nd Dose” value (shortened to “Incidence of pregnancy 13 weeks”) with female mice was 0/5; with female mice (listed as [Th]-[B]), “still infertile”. Moreover, the “Incidence of pregnancy 2 weeks after 2nd Dose” value (shortened to “Incidence of pregnancy 2 weeks”) is given as 0/5 in the data set on female mice and “None of the mice” in the data set on female mice (listed as [Th]-[B]). Besides, the “Pregnancy No. animals per group that dropped litters” value in the data set on female mice (subcutaneous, initiated two weeks after second dose) is on record as 0/5.
Take “Pam3Cys-Ser-Ser-[Th]—[B]: lipoamino acid of Formula (III) conjugated to the N-terminus of peptide [Th]-[B] (SEQ ID NO: 5) (Pam3Cys-SSGALNNRFQIKGVELKSEHWSYGLRPG)”: in the data set with female mice, the “Incidence of pregnancy 13 weeks” value was 0/5 and the “Incidence of pregnancy 2 weeks” value is listed as 2/5. The “Incidence of pregnancy 2 weeks” value in the data set with female mice (listed as Pam3Cys-Ser-Ser-[Th]-[B]) is listed as “two animals”. Moreover, the “solubility / appearance of solution” value in data set [1] is listed as “so insoluble that it could not be purified by RP-HPLC”.
For “[Th]-[J14]: non-lipidated peptide of T-helper epitope P25 (SEQ ID NO: 24) and J14 (SEQ ID NO: 101) (KLIPNASLIENCTKAELKQAEDKVKASREAKKQVEKALEQLEDKVK)”, in the data set on M1 GAS strain, the “survival following intranasal challenge with GAS (FIG. 16)” value is given as “some protective immunity”.
“Pam2Cys-[Th]—[B]: lipid of Formula (II) conjugated to the N-terminus of peptide [Th]-[B] (SEQ ID NO: 5) (Pam2Cys-GALNNRFQIKGVELKSEHWSYGLRPG)”: in the data set on female mice, the “Incidence of pregnancy 13 weeks” value is 3/5 and the “Incidence of pregnancy 2 weeks” value is on record as 2/5. In addition, in the data set with female mice (listed as Pam2Cys-[Th]-[B]), the “Incidence of pregnancy 2 weeks” value is “two animals”. Also, the “ability to cause maturation of DC / up-regulate MHC class II expression (FIG. 5)” value with D1 cells is on record as “least effective”.
Consider “GALNNRFQIKGVELKSKEHWSYGLRPG [[Th]-Lys-[B]]”, for which, in the data set with female mice, the “Incidence of pregnancy 13 weeks” value is “still infertile and 0/5”; the “Incidence of pregnancy 2 weeks” value is “None of the mice and 0/5”. Also, the D1 maturation rate entry in the data set on D1 cells is “about 26%”.
For `CCCCCCCCCCCCCCCC(=O)OCC(CSC[C@H](N)C(=O)N[C@@H](CO)C(=O)N[C@@H](CO)C(=O)NCC(=O)N[C@@H](C)C(=O)N[C@@H](CC(C)C)C(=O)N[C@@H](CC(N)=O)C(=O)N[C@@H](CC(N)=O)C(=O)N[C@@H](CCCNC(=N)N)C(=O)N[C@@H](Cc1ccccc1)C(=O)N[C@@H](CCC(N)=O)C(=O)N[C@H](C(=O)N[C@@H](CCCCN)C(=O)NCC(=O)N[C@H](C(=O)N[C@@H](CCC(=O)O)C(=O)N[C@@H](CC(C)C)C(=O)N[C@@H](CCCCN)C(=O)N[C@@H](CO)C(=O)N[C@@H](CCC(=O)O)C(=O)N[C@@H](Cc1c[nH]cn1)C(=O)N[C@@H](Cc1c[nH]c2ccccc12)C(=O)N[C@@H](CO)C(=O)N[C@@H](Cc1ccc(O)cc1)C(=O)NCC(=O)N[C@@H](CC(C)C)C(=O)N[C@@H](CCCNC(=N)N)C(=O)N1CCC[C@H]1C(=O)NCC(=O)O)C(C)C)[C@@H](C)CC)OC(=O)CCCCCCCCCCCCCCC` (stereo partly drawn) [Pam2Cys-Ser-Ser-[Th]—[B]], the “solubility / appearance of solution” value in data set [1] was “opalescent”.
As for “[Th]-Lys(Pam2Cys-Ser-Ser)-[J14]: P25-Lys-J14 (SEQ ID NO: 106) with Pam2Cys-Ser-Ser on the internal lysine between the epitopes (KLIPNASLIENCTKAELKKQAEDKVKASREAKKQVEKALEQLEDKVK; not fully specified (residue 18); also: Pam2Cys-Ser-Ser on internal lysine between the epitopes (K18 or K19))”, in the data set with J14 [2], the “J14-specific salivary IgA titres (FIG. 14)” value is reported as “far superior”. Further, in the data set on M1 GAS strain, the “survival following intranasal challenge with GAS (FIG. 16)” value is “best survival”. For the same compound, the “faecal IgA titres (FIG. 15)” value with J14 [3] is “significant (P<0.05) faecal IgA titres”. For the same compound, in the data set on J14 [4], the “J14-specific serum IgG titres (FIG. 12)” value is “significantly higher (P<0.05) serum IgG titres”.
For the compound `CCCCCCCCCCCCCCCC(=O)OCC(CSC[C@H](N)C(=O)NCCCC[C@H](NC(=O)[C@H](CO)NC(=O)[C@H](CCCCN)NC(=O)[C@H](CC(C)C)NC(=O)[C@H](CCC(=O)O)NC(=O)[C@@H](NC(=O)CNC(=O)[C@H](CCCCN)NC(=O)[C@@H](NC(=O)[C@H](CCC(N)=O)NC(=O)[C@H](Cc1ccccc1)NC(=O)[C@H](CCCNC(=N)N)NC(=O)[C@H](CC(N)=O)NC(=O)[C@H](CC(N)=O)NC(=O)[C@H](CC(C)C)NC(=O)[C@H](C)NC(=O)CN)[C@@H](C)CC)C(C)C)C(=O)N[C@@H](CCC(=O)O)C(=O)N[C@@H](Cc1c[nH]cn1)C(=O)N[C@@H](Cc1c[nH]c2ccccc12)C(=O)N[C@@H](CO)C(=O)N[C@@H](Cc1ccc(O)cc1)C(=O)NCC(=O)N[C@@H](CC(C)C)C(=O)N[C@@H](CCCNC(=N)N)C(=O)N1CCC[C@H]1C(=O)NCC(=O)O)OC(=O)CCCCCCCCCCCCCCC` (some centres unmarked) [[Th]-Lys(Pam2Cys)-[B]], in data set [1] (no higher concentrations were examined, read-out: soluble in saline at concentrations of at least), the solubility is not below 8000 µg/mL.
